Experimental data published in patent publication US11440903B2, “Salt form and crystal form of compound as FGFR4 inhibitor and preparation method thereof” (GUANGDONG ZHONGSHENG PHARMACEUTICAL CO., LTD, priority 2017, dated 2022).
Like-named read-outs stand apart in the source and are kept apart here.

Columns and labels:
FGFR4 kinase = target: T1, FGFR4 kinase (Homo sapiens, UniProt P22455); test: In vitro enzyme activity test, Z'-LYTE Assay, FGFR4 enzymatic reaction; type: biochemical; settings: 150 μM ATP, room temperature 60 min
T1 construct: purchased Life technology
T1 sequence (P22455 22-802): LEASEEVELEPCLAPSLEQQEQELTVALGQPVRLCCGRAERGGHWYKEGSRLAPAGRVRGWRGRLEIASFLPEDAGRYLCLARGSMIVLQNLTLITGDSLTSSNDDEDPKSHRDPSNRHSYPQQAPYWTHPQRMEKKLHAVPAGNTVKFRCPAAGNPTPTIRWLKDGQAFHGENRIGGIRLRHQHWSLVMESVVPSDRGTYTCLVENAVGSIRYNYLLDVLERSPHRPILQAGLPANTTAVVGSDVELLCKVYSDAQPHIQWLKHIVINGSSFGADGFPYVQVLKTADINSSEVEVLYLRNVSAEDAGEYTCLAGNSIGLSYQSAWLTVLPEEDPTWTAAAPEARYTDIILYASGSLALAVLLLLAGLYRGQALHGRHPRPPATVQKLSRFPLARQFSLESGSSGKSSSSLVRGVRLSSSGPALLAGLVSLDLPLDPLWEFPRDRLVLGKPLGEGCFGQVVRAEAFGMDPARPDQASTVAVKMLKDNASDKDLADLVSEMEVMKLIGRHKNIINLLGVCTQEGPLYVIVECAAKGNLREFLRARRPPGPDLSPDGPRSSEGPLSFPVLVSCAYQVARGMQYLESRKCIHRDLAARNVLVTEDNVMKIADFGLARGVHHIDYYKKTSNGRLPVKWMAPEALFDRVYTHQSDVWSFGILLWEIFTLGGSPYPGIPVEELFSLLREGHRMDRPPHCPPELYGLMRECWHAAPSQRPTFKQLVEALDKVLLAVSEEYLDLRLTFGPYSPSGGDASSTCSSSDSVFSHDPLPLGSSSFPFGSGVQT
Procedure: (§1) The enzyme activity was detected by Z′-LYTE® Assay with IC50 value of the compound used as an index for evaluating the inhibitory effect of the compound on FGFR4 kinases. The activity test was completed in Life technology.
(§2) The test compound was subjected to 3× gradient dilution, and the final concentrations included 10 concentrations from 10 μM to 0.5 nM, with two duplicates per concentration; the content of DMSO used in the detection reaction was 1%.
[…] The detection plate was Bar-coded Corning, low volume NBS, black 384-well plate, the reaction was implemented at room temperature for 60 min, and the reaction system was 10 μL.
(§3) 5 μL Development reagent B (1:64) was added into the kinase reaction solution to stop the reaction, and the reaction solution was incubated at 23° C. for 60 min, the plate was read with Envision instrument.
(§4) The data were converted to the phosphorylation rate and the inhibitory rate, and was subjected to curve fitting with Model 205 in XLFIT (iDBS) to give the IC50 data of the compound. If the bottom of the curve was not in the range of −20% to 20%, it was set as 0%; and if the top of the curve was not in the range of 70% to 130%, it was set as 100%.

FGFR1 protein kinase = target: T2, FGFR1 protein kinase (Homo sapiens, UniProt P11362); test: In vitro enzyme activity test, Z'-LYTE Assay, FGFR1 enzymatic reaction; type: biochemical; settings: 25 uM ATP, room temperature 60 min
T2 construct: purchased Life technology
T2 sequence (P11362 22-822): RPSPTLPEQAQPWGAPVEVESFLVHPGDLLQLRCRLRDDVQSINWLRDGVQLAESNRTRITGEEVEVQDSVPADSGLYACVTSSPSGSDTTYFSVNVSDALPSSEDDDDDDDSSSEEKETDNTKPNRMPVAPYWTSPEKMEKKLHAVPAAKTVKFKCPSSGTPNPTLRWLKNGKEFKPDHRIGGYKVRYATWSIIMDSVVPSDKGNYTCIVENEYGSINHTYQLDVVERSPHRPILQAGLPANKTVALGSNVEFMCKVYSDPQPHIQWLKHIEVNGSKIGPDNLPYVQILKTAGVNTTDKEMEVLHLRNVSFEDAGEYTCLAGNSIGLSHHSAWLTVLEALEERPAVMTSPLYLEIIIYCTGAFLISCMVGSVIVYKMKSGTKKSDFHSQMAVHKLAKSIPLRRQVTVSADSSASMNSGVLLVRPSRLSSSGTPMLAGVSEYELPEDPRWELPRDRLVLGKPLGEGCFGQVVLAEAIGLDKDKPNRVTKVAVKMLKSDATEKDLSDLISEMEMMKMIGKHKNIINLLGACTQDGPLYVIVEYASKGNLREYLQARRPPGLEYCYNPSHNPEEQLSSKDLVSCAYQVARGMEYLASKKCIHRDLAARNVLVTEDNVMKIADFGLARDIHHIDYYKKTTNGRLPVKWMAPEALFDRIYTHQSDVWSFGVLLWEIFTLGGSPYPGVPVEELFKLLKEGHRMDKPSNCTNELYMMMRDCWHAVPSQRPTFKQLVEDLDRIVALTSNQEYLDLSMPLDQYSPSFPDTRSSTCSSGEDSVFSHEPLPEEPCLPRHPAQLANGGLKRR
Procedure: as §1, §2
1 nM FGFR1 protein kinase, 2 μM Tyr4 peptide, 25 uM ATP, 50 mM HEPES (pH 7.5), 10 mM MgCl2, 1 mM EGTA, 0.01% BRIJ-35, 2 mM MnCl2, and 1 mM DTT. The detection plate was Black Proxiplate 384-Plus plate (PerkinElmer), the reaction was implemented at room temperature for 60 min, and the reaction system was 10 μL.
as §3, §4

[1] = Solubility test in biological media (FaSSIF, FeSSIF, SGF) and water, 37° C.; type: physicochemical; settings: for Status (24 h) / solubility at 24 h / pH 24 hours: 37° C.; for Status (24 h): about 4 mg in 2 mL; for solubility at 24 h: salt forms converted to salt concentrations, read-out: Solubility (mg/mL) 24 hours; for pH 24 hours: supernatant; for pH 0 hour: initial
Procedure: Step 1: Preparation of Control Solutions (0.2 mg/mL, calculated by free base)
2 mg the crystal form B of the compound represented by formula (I) (or 2.4 mg the crystal form E of the compound represented by formula (II)) as a control was precisely weighed and placed into a 40 mL glass vial, and a diluent (10 mL) was precisely added. The reaction solution was subjected to ultrasonic treatment for 20 min to sufficiently dissolve, then cooled to room temperature and shaked well. Two control solutions (STD #1, STD #2) were formulated in accordance with this method.
Step 2: Preparation of Linear Solutions
The control solution STD #1 of the crystal form B of the compound represented by formula (I) was 1×, 10×, 100×, 1000× and 2000× (free base LOQ) diluted, and designated as the linear solutions L1, L2, L3, L4 and L5; the control solution STD #1 of the crystal form E of the compound represented by formula (II) was 1×, 10×, 100× and 1000× (methanesulfonate LOQ) diluted, and designated as the linear solutions L1, L2, L3, L4.
Step 3: Solubility Test of the crystal form B of the compound represented by formula (I), the crystal form G of the compound represented by formula (III) and the crystal form E of the compound represented by formula (II) in biological media and water
4 samples (about 4 mg) of each of the crystal form B of the compound represented by formula (I), the crystal form E of the compound represented by formula (II), and the crystal form G of the compound represented by formula (III) were added into 12 glass vials (4 mL), respectively, and then 2 mL different biological media (FaSSIF, FeSSIF, SGF) and water were added into each compound respectively, then mixed homogeneously to form a suspension. The suspension was detected for its initial pH value. A magnet was added into the suspension, and placed on a magnetic stirring heater for stirring (at a temperature of 37° C., in dark). After stirring for 24 h, a sample was taken. The taken sample was quickly centrifuged, and the residual solid was detected by XRPD. The supernatant was detected for its pH value and diluted with a diluent into appropriate multiple, then measured with HPLC for its concentration.
FaSSIF: 1. 0.042 g sodium hydroxide, 0.3438 g sodium dihydrogen phosphate and 0.6186 g sodium chloride were weighed, added into 90 mL purified water, and homogeneously mixed, then, the mixture was adjusted with 1 N hydrochloric acid or 1 N sodium hydroxide to pH=6.5, and diluted into a constant volume of 100 mL with purified water; 2. 50 mL of the buffer described above was taken, and 0.224 g commercially available powder (Biorelevant.com) of FaSSIF/FeSSIF/FaSSGF was added thereto, the mixture was stirred to dissolve, and diluted with purified water to a constant volume of 100 mL.
FeSSIF: 1. 0.404 g sodium hydroxide, 0.865 g glacial acetic acid, and 1.1874 g sodium chloride were weighed, added into 90 mL purified water, and homogeneously mixed, then, the mixture was adjusted with 1 N hydrochloric acid or 1 N sodium hydroxide to pH=5.0, and diluted with purified water to a constant volume of 100 mL, 2. 50 mL of the buffer described above was taken, and 1.12 g commercially available powder (Biorelevant.com) of FaSSIF/FeSSIF/FaSSGF was added thereto, the mixture was stirred to dissolve, and diluted with purified water to a constant volume of 100 mL.
FaSSGF (SGF): 1. 0.2 g sodium chloride was weighed, added into 90 mL purified water, and mixed homogeneously, the mixture was adjusted with 1 N hydrochloric acid to pH=1.8, and diluted with purified water to a constant volume of 100 mL, and stood at room temperature.

[2] = Stability of the crystal form on stirring as suspension in solvent (40° C., 2 days); type: physicochemical; settings: stirring in acetone at 40° C.
Procedure: 30 mg of the compound represented by formula (I) was weighed and added into a glass flask, 400 μL acetonitrile-water (1:1) was added to form a suspension. A sample of the suspension was placed on a magnetic stirrer (40° C.) for a dark stirring experiment. The sample of the suspension was centrifuged after stirring at 40° C. for 2 days, and then the residual sample was dried in a vacuum drying oven (30° C.) overnight to give a crystal form A of the compound represented by formula (I). The XRPD pattern of the crystal form A of the compound represented by formula (I) is shown in FIG. 1, the DSC pattern is shown in FIG. 2, and the TGA pattern is shown in FIG. 3.
30 mg of the compound represented by formula (I) was weighed and added into a glass flask, and 400 μL ethyl acetate was added to form a suspension. A sample of the suspension was placed on a magnetic stirrer (40° C.) for dark stirring experiment. The sample of the suspension was centrifuged after stirring at 40° C. for 2 days, and then the residual sample was dried in a vacuum drying oven (30° C.) overnight. The crystal form was detected by XRPD to give a crystal form A of the compound represented by formula (I).
30 mg of the compound represented by formula (I) was weighed and added into a glass flask, and 400 μL methanol was added to form a suspension. A sample of the suspension was placed on a magnetic stirrer (40° C.) for dark stirring experiment. The sample of the suspension was centrifuged after stirring at 40° C. for 2 days, and then the residual sample was dried in a vacuum drying oven (30° C.) overnight to give a crystal form B of the compound represented by formula (I). The XRPD pattern of the crystal form B of the compound represented by formula (I) is shown in FIG. 4, the DSC pattern is shown in FIG. 5, and the TGA pattern is shown in FIG. 6.
50 mg of the compound represented by formula (I) was weighed and added into a 1.5 mL liquid vial, and 200 μL methanol was added thereto, the obtained mixture was homogeneously mixed under ultrasound. The dissolved sample was quickly centrifuged, and the supernatant was placed in a centrifuge tube, the mouth of the tube was packed with a pierced aluminum foil, and then the tube was placed in a fume cupboard for volatilization; the sample of the suspension was placed on a magnetic stirring heater (40° C.) for stirring (in dark), and quickly centrifuged after 2 days. The resultant solid was collected and dried at 30° C. in a vacuum drying oven overnight to give the crystal form C of the compound represented by formula (I). The XRPD pattern of the crystal form C of the compound represented by formula (I) is shown in FIG. 7, the DSC pattern is shown in FIG. 8, and the TGA pattern is shown in FIG. 9.
50 mg of the compound represented by formula (I) was weighed and added into a 1.5 mL liquid vial, and 200 μL ethanol was added thereto, and the obtained mixture was homogeneously mixed under ultrasound. The dissolved sample was quickly centrifuged, the supernatant was placed into a centrifuge tube, and the mouth of the tube was packed with a pierced aluminum foil, and placed in a fume cupboard for volatilization; the sample of the suspension was placed on a magnetic stirring heater (40° C.) for stirring (in dark), and quickly centrifuged after 2 days. The solid obtained as above was collected and dried at 30° C. in a vacuum drying oven overnight to give a crystal form D of the compound represented by formula (I). The XRPD pattern of the crystal form D of the compound represented by formula (I) is shown in FIG. 10, the DSC pattern is shown in FIG. 11, and the TGA pattern is shown in FIG. 12.
35 mg of the compound represented by formula (II) was weighed and added into a 1.5 mL liquid vial, and 400 μL methanol was added thereto, and the obtained mixture was homogeneously mixed under ultrasound. […]

| IC50 (FGFR4 kinase) | IC50 (FGFR1 protein kinase) | Status (24 h) ([1]; FaSSIF) | solubility in three types of biological media, conclusion in words ([1]; FaSSIF, FeSSIF, SGF) | Status (24 h) ([1]; FeSSIF) | solubility at 24 h ([1]; SGF (FaSSGF), pH 1.8, simulated gastric fluid, thermodynamic from solid, SGF) | Status (24 h) ([1]; SGF) | Status (24 h) ([1]; Water) | solubility at 24 h ([1]; pH 5, thermodynamic from solid, FeSSIF) | solubility at 24 h ([1]; pH 6.5, thermodynamic from solid, FaSSIF) | pH 24 hours ([1]; FaSSIF) | pH 24 hours ([1]; FeSSIF) | pH 24 hours ([1]; SGF) | pH 24 hours ([1]; Water) | pH 0 hour ([1]; suspension in FaSSIF) | pH 0 hour ([1]; suspension in FeSSIF) | pH 0 hour ([1]; suspension in SGF) | pH 0 hour ([1]; suspension in Water) | solubility at 24 h ([1]; thermodynamic from solid, Water) | stability in the acetone solution [2] | Structure (SMILES) |
| --- | --- | --- | --- | --- | --- | --- | --- | --- | --- | --- | --- | --- | --- | --- | --- | --- | --- | --- | --- | --- |
| 17 nM | 1460 nM |  |  |  |  |  |  |  |  |  |  |  |  |  |  |  |  |  |  | C=CC(=O)N[C@H]1COC[C@H]1Nc1ncc(/C=C(\F)c2c(Cl)c(OC)cc(OC)c2Cl)cn1 [Compound represented by formula (I)] |
|  |  | Suspension | good solubility | Suspension | 0.045 mg/mL | Suspension | Suspension | 0.668 mg/mL | 0.079 mg/mL | 6.38 | 4.99 | 2.14 | 2.47 | 6.54 | 4.87 | 2.03 | 2.34 | 0.028 mg/mL | substantially high stability | C=CC(=O)N[C@H]1COC[C@H]1Nc1ncc(/C=C(\F)c2c(Cl)c(OC)cc(OC)c2Cl)cn1.O=S(=O)(O)O |
